# Assay results as given in ChEMBL document CHEMBL4138292, “Metabolomics-Guided Discovery of Microginin Peptides from Cultures of the Cyanobacterium Microcystis aeruginosa” (J Nat Prod, 2018).
# pIC50: −log10 of the molar value.
# Molecular target: Angiotensin-converting enzyme (Homo sapiens, UniProt P12821)
# Assay: Inhibition of ACE (unknown origin) using hippuryl-L-histidyl-L-leucine as substrate preincubated with substrate for 30 mins followed by enzyme addition measured after 30 mins by LC/MS analysis
# Chain of Angiotensin-converting enzyme (P12821 whole entry): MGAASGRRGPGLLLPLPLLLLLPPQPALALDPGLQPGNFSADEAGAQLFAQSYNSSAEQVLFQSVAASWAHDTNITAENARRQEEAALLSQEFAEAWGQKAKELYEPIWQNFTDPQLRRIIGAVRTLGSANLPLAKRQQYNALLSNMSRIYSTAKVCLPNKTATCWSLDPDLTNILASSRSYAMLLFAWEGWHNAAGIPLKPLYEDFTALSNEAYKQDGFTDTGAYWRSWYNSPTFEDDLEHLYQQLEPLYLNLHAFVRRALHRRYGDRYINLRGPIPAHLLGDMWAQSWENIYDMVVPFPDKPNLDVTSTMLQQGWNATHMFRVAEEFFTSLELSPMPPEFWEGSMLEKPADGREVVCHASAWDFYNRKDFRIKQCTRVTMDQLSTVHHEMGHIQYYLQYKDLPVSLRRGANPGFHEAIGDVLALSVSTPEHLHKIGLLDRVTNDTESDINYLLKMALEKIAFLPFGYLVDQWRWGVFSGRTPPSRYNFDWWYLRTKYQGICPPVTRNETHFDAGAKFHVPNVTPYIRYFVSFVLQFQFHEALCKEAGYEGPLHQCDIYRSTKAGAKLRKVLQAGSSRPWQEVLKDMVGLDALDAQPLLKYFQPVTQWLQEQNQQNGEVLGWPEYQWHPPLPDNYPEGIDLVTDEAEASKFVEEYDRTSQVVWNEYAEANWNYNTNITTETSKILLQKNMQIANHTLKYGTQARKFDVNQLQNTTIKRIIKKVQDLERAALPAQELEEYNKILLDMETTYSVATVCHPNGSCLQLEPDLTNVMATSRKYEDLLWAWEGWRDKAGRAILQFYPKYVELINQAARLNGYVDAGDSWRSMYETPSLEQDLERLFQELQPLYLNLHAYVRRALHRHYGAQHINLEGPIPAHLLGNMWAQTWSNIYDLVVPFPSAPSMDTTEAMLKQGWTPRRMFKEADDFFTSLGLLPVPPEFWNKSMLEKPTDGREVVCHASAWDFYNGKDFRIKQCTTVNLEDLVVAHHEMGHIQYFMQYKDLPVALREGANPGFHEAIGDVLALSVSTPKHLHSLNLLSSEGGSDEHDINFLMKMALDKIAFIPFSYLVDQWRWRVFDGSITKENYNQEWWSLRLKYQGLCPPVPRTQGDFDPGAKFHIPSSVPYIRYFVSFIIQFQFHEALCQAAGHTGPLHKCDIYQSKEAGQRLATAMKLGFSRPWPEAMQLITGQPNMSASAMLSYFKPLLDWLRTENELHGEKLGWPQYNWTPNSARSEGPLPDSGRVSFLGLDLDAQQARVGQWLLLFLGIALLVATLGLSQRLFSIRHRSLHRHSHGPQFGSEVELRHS
row,SMILES,pIC50
1,CCCCCCC[C@H](N)[C@H](O)C(=O)N(C)[C@@H](CC[S+](C)[O-])C(=O)N[C@@H](Cc1ccc(O)cc1)C(=O)O (stereo partly drawn),4.51
2,CCCCCCC[C@H](N)[C@H](O)C(=O)N[C@@H](C)C(=O)N[C@H](C(=O)O)C(C)C,3.34
3,O=C(O)CN(CCN(CC(=O)O)CC(=O)O)CC(=O)O [EDETIC ACID],4.85
